# Active and inactive are the calls of the source. No cut-off for these calls is given here.
# Experiments:
# Klebsiella pneumoniae [1] = assay: Antibacterial activity against Klebsiella pneumoniae MTCC 618 assessed as diameter of zone of inhibition at 200 ug/ml after 24 hrs by agar well diffusion method; assay type: functional
# [2] = test system: Staphylococcus epidermidis; assay: Antibacterial activity against Staphylococcus epidermidis assessed as reduction in microbial growth after 24 hrs by CLSI based microdilution method; assay type: functional
# Pseudomonas aeruginosa [3] = assay: Antibacterial activity against Pseudomonas aeruginosa MTCC 741 assessed as reduction in microbial growth after 24 hrs by CLSI based microdilution method; assay type: functional; conditions: MTCC 741, 24 h
# Klebsiella pneumoniae [4] = assay: Antibacterial activity against Klebsiella pneumoniae MTCC 618 assessed as reduction in microbial growth after 24 hrs by CLSI based microdilution method; assay type: functional; conditions: MTCC 618, 24 h
# [5] = Cytotoxicity against HEK cells assessed as reduction in cell viability after 24 hrs by MTT assay; assay type: cell-based, Homo sapiens
# Staphylococcus aureus [6] = assay: Antibacterial activity against Staphylococcus aureus MTCC 96 assessed as diameter of zone of inhibition at 200 ug/ml after 24 hrs by agar well diffusion method; assay type: functional
# Escherichia coli [7] = assay: Antibacterial activity against Escherichia coli MTCC 443 assessed as diameter of zone of inhibition at 200 ug/ml after 24 hrs by agar well diffusion method; assay type: functional
# Staphylococcus aureus [8] = assay: Antibacterial activity against Staphylococcus aureus MTCC 96 assessed as reduction in microbial growth after 24 hrs by CLSI based microdilution method; assay type: functional; conditions: MTCC 96, 24 h
# [9] = test system: Staphylococcus epidermidis; assay: Antibacterial activity against Staphylococcus epidermidis assessed as diameter of zone of inhibition at 200 ug/ml after 24 hrs by agar well diffusion method; assay type: functional
# Bacillus subtilis [10] = assay: Antibacterial activity against Bacillus subtilis MTCC 441 assessed as reduction in microbial growth after 24 hrs by CLSI based microdilution method; assay type: functional; conditions: MTCC 441, 24 h
# Pseudomonas aeruginosa [11] = assay: Antibacterial activity against Pseudomonas aeruginosa MTCC 741 assessed as diameter of zone of inhibition at 200 ug/ml after 24 hrs by agar well diffusion method; assay type: functional
# Bacillus subtilis [12] = assay: Antibacterial activity against Bacillus subtilis MTCC 441 assessed as diameter of zone of inhibition at 200 ug/ml after 24 hrs by agar well diffusion method; assay type: functional; conditions: MTCC 441, 24 h, read-out: DIZ
# CHO-K1 = assay: Cytotoxicity against CHOK1 cells assessed as reduction in cell viability after 24 hrs by MTT assay; assay type: cell-based; conditions: Cricetulus griseus, CHO-K1, 24 h
# Escherichia coli [13] = assay: Antibacterial activity against Escherichia coli MTCC 443 assessed as reduction in microbial growth after 24 hrs by CLSI based microdilution method; assay type: functional; conditions: MTCC 443, 24 h
# [14] = test system: Mycobacterium tuberculosis; assay: Antitubercular activity against Mycobacterium tuberculosis H37Rv assessed as reduction in microbial growth after 7 days by alamar blue assay; assay type: functional; conditions: 168 h
# [15] = test system: Mycobacterium tuberculosis; assay: Antitubercular activity against Mycobacterium tuberculosis H37Rv assessed as log reduction in bacterial population at 10 ug/ml under starvation condition after 7 days by MPN assay; assay type: functional
# [16] = Homo sapiens, HEK293, 24 h, read-out: IC50
SMILES,diameter of the inhibition zone (DIZ) (Klebsiella pneumoniae [1]),MIC [2] [µM],MIC (Pseudomonas aeruginosa [3]) [µM],MIC (Klebsiella pneumoniae [4]) [µM],IC50 [5],diameter of the inhibition zone (DIZ) (Staphylococcus aureus [6]),diameter of the inhibition zone (DIZ) (Escherichia coli [7]),MIC (Staphylococcus aureus [8]) [µM],diameter of the inhibition zone (DIZ) [9],MIC (Bacillus subtilis [10]) [µM],diameter of the inhibition zone (DIZ) (Pseudomonas aeruginosa [11]),zone of inhibition at 200 µg/mL (Bacillus subtilis [12]) [mm],IC50 (CHO-K1) [µM],MIC (Escherichia coli [13]) [µM],MIC [14] [µM],FC [15],"IC50 [5, 16] [µM]"
CC(=O)c1c(O)c(C)c(O)c2c1OC1=CC(=O)/C(=C(/C)NCc3cn(CC(=O)c4ccc5ccccc5c4)nn3)C(=O)C12C (stereo unspecified),inactive,> 350,> 350,> 350,Non-Toxic,inactive,inactive,> 350,inactive,169,inactive,11,67.4,> 350,5.3,2.1,
CC(=O)c1c(O)c(C)c(O)c2c1OC1=CC(=O)/C(=C(/C)NCc3cn(CCN4C(=O)c5ccccc5S4(=O)=O)nn3)C(=O)C12C (stereo unspecified),,,,,,,,,,,,,12.1,,2.5,2.8,91.8
CC(=O)c1c(O)c(C)c(O)c2c1OC1=CC(=O)/C(=C(/C)NCc3cn(CC(=O)c4c(F)c(F)c(F)c(F)c4F)nn3)C(=O)C12C (stereo unspecified),inactive,> 350,> 350,> 350,Non-Toxic,inactive,inactive,> 350,inactive,158,inactive,12,67.6,> 350,39.5,,
CC(=O)c1c(O)c(C)c(O)c2c1OC1=CC(=O)/C(=C(/C)NCc3cn(CC(=O)c4ccc(F)c(F)c4)nn3)C(=O)C12C (stereo unspecified),inactive,> 350,> 350,> 350,,inactive,inactive,> 350,inactive,173,inactive,12,53.4,> 350,5.4,2.5,52
CC(=O)c1c(O)c(C)c(O)c2c1OC1=CC(=O)/C(=C(/C)NCc3cn(CC(=O)c4cccc(C(F)(F)F)c4)nn3)C(=O)C12C (stereo unspecified),inactive,> 350,> 350,> 350,,inactive,inactive,> 350,inactive,40.9,inactive,15,25.6,> 350,41,,91.3

# From ChEMBL document CHEMBL4342442, “Usnic Acid Enaminone-Coupled 1,2,3-Triazoles as Antibacterial and Antitubercular Agents” (J Nat Prod, 2020)
